Assays:
[1] = biological target: T1, Prostaglandin G/H synthase 1 (Bos taurus, UniProt O62664)
T1 sequence (O62664 whole entry): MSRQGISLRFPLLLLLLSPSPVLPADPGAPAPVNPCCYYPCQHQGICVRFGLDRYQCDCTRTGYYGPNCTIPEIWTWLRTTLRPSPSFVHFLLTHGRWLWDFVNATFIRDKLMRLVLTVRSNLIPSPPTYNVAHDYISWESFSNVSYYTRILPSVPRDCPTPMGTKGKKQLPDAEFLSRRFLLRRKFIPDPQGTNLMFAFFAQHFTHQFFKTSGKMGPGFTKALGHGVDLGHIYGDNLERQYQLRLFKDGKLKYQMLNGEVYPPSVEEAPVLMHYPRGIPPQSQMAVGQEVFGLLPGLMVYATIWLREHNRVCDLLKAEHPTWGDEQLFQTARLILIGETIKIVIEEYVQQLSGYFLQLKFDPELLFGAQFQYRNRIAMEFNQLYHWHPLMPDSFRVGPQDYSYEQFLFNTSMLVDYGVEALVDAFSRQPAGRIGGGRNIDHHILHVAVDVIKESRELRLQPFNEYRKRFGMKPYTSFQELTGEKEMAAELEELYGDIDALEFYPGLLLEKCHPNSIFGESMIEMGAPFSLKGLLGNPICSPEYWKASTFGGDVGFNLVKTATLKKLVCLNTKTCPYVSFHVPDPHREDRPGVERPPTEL
Description: Inhibition of COX1 in bovine platelets assessed as formation of 12-hydroxyheptadecatrienoic acid by HPLC

[2] = biological target: T2, Prostaglandin G/H synthase 2 (Homo sapiens, UniProt P35354); experiment: Inhibition of COX2 in LPS-stimulated human blood
T2 sequence (P35354 whole entry): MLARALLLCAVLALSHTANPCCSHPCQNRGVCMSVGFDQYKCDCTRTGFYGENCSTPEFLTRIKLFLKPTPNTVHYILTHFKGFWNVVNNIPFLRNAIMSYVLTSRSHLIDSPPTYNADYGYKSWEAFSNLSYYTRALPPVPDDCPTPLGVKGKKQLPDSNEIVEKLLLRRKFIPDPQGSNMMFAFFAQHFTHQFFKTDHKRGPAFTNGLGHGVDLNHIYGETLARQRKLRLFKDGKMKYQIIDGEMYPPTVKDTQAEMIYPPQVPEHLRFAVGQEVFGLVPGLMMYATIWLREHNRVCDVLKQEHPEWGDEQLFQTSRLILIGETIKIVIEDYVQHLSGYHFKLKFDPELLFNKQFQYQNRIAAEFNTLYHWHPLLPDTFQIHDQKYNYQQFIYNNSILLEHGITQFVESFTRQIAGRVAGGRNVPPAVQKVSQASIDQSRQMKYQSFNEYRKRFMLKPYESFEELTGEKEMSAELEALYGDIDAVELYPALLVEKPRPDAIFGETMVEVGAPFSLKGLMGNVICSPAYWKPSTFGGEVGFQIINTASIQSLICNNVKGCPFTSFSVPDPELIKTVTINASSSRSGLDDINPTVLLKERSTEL

[3] = Inhibition of 5LOX in bovine polymorphonuclear leucocytes assessed as leukotriene B4 formation; type: cell-based; conditions: Bos taurus
Mus musculus [4] = experiment: Effect on compound 48/80-induced leukocyte recruitment in BALB/c mouse peritonitis model assessed as reduction in polymorphonuclear leucocyte count in peritoneal cavity at 50 mg/kg, ip administered 1 hr before compound 48/80 challenge; type: functional; parameters: scale not given: the % may be the effect or the level left; conditions: route intraperitoneal
MONO-MAC-6 [5] = experiment: Inhibition of TNF-alpha-stimulated adhesion of human MM6 cells to BAEC at 100 uM by static assay relative to control; type: functional
Mus musculus [6] = experiment: Reduction of CD11b protein expression on neutrophils in BALB/c mouse compound 48/80-induced peritonitis model at 50 mg/kg, ip administered 1 hr before compound 48/80 challenge; type: functional; parameters: scale not given: the % may be the effect or the level left; conditions: route intraperitoneal
[7] = Cytotoxicity against BALB/c mouse polymorphonuclear leukocytes assessed as cell viability after 6 hrs by trypan blue exclusion assay; conditions: read-out: Activity
Bos taurus = organism: Bos taurus; conditions: 10 uM
Description: Inhibition of 5LOX in bovine polymorphonuclear leucocytes assessed as leukotriene B4 formation at 10 uM

MONO-MAC-6 [8] = experiment: Inhibition of TNF-alpha-stimulated adhesion of human MM6 cells to BAEC at 30 uM by static assay relative to control; type: functional
MONO-MAC-6 [9] = experiment: Inhibition of TNF-alpha-stimulated adhesion of human MM6 cells to BAEC at 40 uM by static assay relative to control; conditions: MONO-MAC-6, read-out: INH

Row | Structure (SMILES) | IC50 [1] [µM] | IC50 [2] [µM] | IC50 [3] [µM] | also measured
1 | Cc1ccc(-c2cnsc2-c2ccc(Cl)cc2)cc1 | 0.04 | > 50 | 50 | –
2 | Cc1ccc(-c2sncc2-c2ccc(Cl)cc2)cc1 | 0.2 | – | > 50 | –
3 | Cc1ccc(-c2ssc(=S)c2-c2ccc(Cl)cc2)cc1 | 0.006 | 50 | > 50 | –
4 | CC(Cc1ccc(O)c(O)c1)C(C)Cc1ccc(O)c(O)c1 (stereo not drawn) [NORDIHYDROGUAIARETIC ACID] | 50 | > 50 | 1 | –
5 | Clc1ccc(-c2cnsc2-c2ccc(Cl)cc2)cc1 | 0.1 | 4 | – | –
6 | CC1(C)Cc2c(-c3ccccc3)c(-c3ccc(Cl)cc3)c(CC(=O)O)n2C1 [LICOFELONE] | 0.2 | – | 0.189 | inhibition at 30 µM (MONO-MAC-6 [8]): 56%
7 | CS(=O)(=O)c1ccc(-c2ssc(=S)c2-c2ccccc2)cc1 | – | > 50 | 3 | inhibition at 100 µM (MONO-MAC-6 [5]): 9%
8 | Cc1ccc(-c2cc(C(F)(F)F)nn2-c2ccc(S(N)(=O)=O)cc2)cc1 [CELECOXIB] | – | – | – | inhibition at 40 µM (MONO-MAC-6 [9]): 85%
9 | CS(=O)(=O)c1ccc(-c2c(-c3ccccc3)ssc2=O)cc1 | 8 | > 50 | > 50 | –
10 | CS(=O)(=O)c1ccc(-c2ssc(=S)c2-c2ccc(F)cc2)cc1 | > 50 | > 50 | 20 | inhibition at 100 µM (MONO-MAC-6 [5]): 85%
11 | O=C(O)Cc1ccccc1Nc1c(Cl)cccc1Cl [DICLOFENAC] | – | – | > 50 | –
12 | COc1ccc(-c2sncc2-c2ccc(Cl)cc2)cc1 | 0.02 | > 50 | 20 | –
13 | Cc1ccc(-c2c(-c3ccc(Cl)cc3)ssc2=S)cc1 | 2 | > 50 | 20 | –
14 | COc1ccc(-c2cnsc2-c2ccc(OC)cc2)cc1 | 0.003 | 0.8 | 20 | –
15 | Cc1ccc(-c2ssc(=S)c2-c2ccc(S(C)(=O)=O)cc2)cc1 | 0.6 | > 50 | > 50 | inhibition at 100 µM (MONO-MAC-6 [5]): 26%
16 | CS(=O)(=O)c1ccc(-c2sncc2-c2ccc(F)cc2)cc1 | 50 | 9 | 10 | –

The next lines start with results.

Row | IC50 [1] [µM] | IC50 [2] [µM] | IC50 [3] [µM] | Structure (SMILES) | also measured
17 | 7 | 9 | 9 | Cc1ccc(-c2c(-c3ccc(S(C)(=O)=O)cc3)ssc2=S)cc1 | Activity (Mus musculus [4]): 49%; inhibition at 100 µM (MONO-MAC-6 [5]): 71%; Activity (Mus musculus [6]): 40%; viability at 6 h [7]: 94%
18 | 0.07 | – | 50 | COc1ccc(-c2cnsc2-c2ccc(Cl)cc2)cc1 | –
19 | 0.2 | > 50 | > 50 | Cc1ccc(-c2c(-c3ccc(Cl)cc3)ssc2=O)cc1 | –
20 | 20 | > 50 | > 50 | CS(=O)(=O)c1ccc(-c2c(-c3ccccc3)ssc2=S)cc1 | inhibition at 100 µM (MONO-MAC-6 [5]): 38%
21 | 8 | 1.1 | > 50 | CS(=O)(=O)c1ccc(-c2ssc(=O)c2-c2ccccc2)cc1 | inhibition (Bos taurus): 13%
22 | 1 | > 50 | > 50 | Oc1ccc(-c2cnsc2-c2ccc(O)cc2)cc1 | –
23 | 0.03 | 20 | 10 | COc1ccc(-c2ssc(=S)c2-c2ccc(OC)cc2)cc1 | –
24 | 0.01 | > 50 | 8 | COc1ccc(-c2sncc2-c2ccc(C)cc2)cc1 | –
25 | 20 | > 50 | 6 | Oc1ccc(-c2ssc(=S)c2-c2ccc(O)cc2)cc1 | inhibition at 100 µM (MONO-MAC-6 [5]): 54%
26 | 0.0003 | 1 | > 50 | COc1ccc(-c2ssc(=O)c2-c2ccc(OC)cc2)cc1 | –
27 | 0.02 | > 50 | > 50 | Cc1ccc(-c2ssc(=O)c2-c2ccc(Cl)cc2)cc1 | –

Reference: ChEMBL document CHEMBL1140871, “Diaryl-dithiolanes and -isothiazoles: COX-1/COX-2 and 5-LOX-inhibitory, *OH scavenging and anti-adhesive activities” (Bioorg Med Chem, 2009)
